# Reference: patent US20230240988A1, “FLUID GEL COMPOSITIONS” (The University of Birmingham, priority 2020, published 2023)
# Like-named read-outs stand apart in the source and are kept apart here.
# Tests used:
# [1] = Release assay of active agents from PEG-DA fluid gel (trans-well, UV/Vis); assay type: physicochemical; details: 3% v/v PEG-DA fluid gel (500 rpm), PBS 37° C., 5 hrs
# Description: • Active amounts: […] • Standard concentrations of active in PBS were prepared. • Standards were pipetted into a quartz cuvette (1 mm pathlength). • […] spectroscopy was used to measure absorbance between 200 and 700 nm wavelength. • Curves were plotted and used to determine standard curves which were used to determine concentrations. • 0.5 ml PBS was added to the well of a 24 well plate. • The PBS was incubated at 37° C. to equilibrate. 0.1 ml of the fluid gel containing active was placed in a trans-well insert. • The trans-well insert was placed into a well containing PBS. • After a given time period the trans-well insert was removed and placed in a fresh well of PBS. • The release media was then removed and analysed using […] spectroscopy. Concentrations were derived from the standard curves and cumulative release plotted as a function of time.
# [2] = tested on: primary ovine chondrocytes; assay: PrestoBlue metabolic activity assay; assay type: cell-based
# Description: All cell work was undertaken on primary ovine chondrocytes. Cells were first expanded, then seeded into wells 24 hrs prior to the application of the fluid gels. Once treatments were added, the cells were cultured for a further 3 days before testing for both metabolic activity and cell viability. In the presence of functionalised particles, suspension wells were used to promote adhesion to the gelled particles, away from the plastic. Metabolic activity assay was undertaken using a PrestoBlue™ assay kit (Invitrogen). In brief, cells were washed with Dulbecco's PBS, and 1 mL of PrestoBlue™ supplemented medium (10%) was added to each well and incubated for 4 hrs. 50 μL of supernatant from each well was transferred to one well of a 96 well plate and fluorescence was measured using a Tecan Spark (Tecan Group Ltd, UK) plate reader with excitation/emission wavelengths set at 550/620 nm.
Compound,release of active agent from fluid gel [1],other results
Dextran,able to release,–
"CC(C)Cc1ccc(C(C)C(=O)O)cc1 (stereo not shown) [Ibuprofen, ibuprofen]",able to release,–
"CC(C)(O)C(=O)c1ccc(OCCO)cc1 [Irgacure-2959, 1-[4-(2-Hydroxyethoxy)-phenyl]-2-hydroxy-2-methyl-1-propane-1-one]",–,"cell metabolic activity, individual formulation components [2]: slight reduction in cell metabolism"
"CC(C)(O)C(=O)c1ccccc1 [Omnirad-1173, 2-hydroxy-2-methyl-1-phenylpropanone]",–,"cell metabolic activity, individual formulation components ([2]; 3 days culture, PEG-DA not cured, 3.5% & 5%): slight reduction in cell metabolism, although not statistical"
